Like-named read-outs stand apart in the source and are kept apart here. Blank lines part the entries; values can stand above or below the compound they belong to.
Key:
aqueous solubility = type: physicochemical
[1] = system: erythroid or myelomonocytic differentiation; conditions: stimulated by erythropoietin or granulocyte-macrophage colony-stimulating factor; cited from earlier work
[2] = in vivo; cited from earlier work
megakaryocytopoiesis [3] = assay: inhibition of TPO-induced megakaryocytopoiesis (differentiation of human CD34+ stem cells into megakaryocytes); type: cell-based; conditions: read-out: anti-megakaryocytic IC50
Source text: Such activity may be assessed using a well established model. Assessment of the in vitro anti-megakaryocytic activity—and potentially therefore the platelet lowering capability—of the anagrelide prodrugs can be determined using the model of megakaryocytopoiesis (Cohen-Solal et al., Thromb. Haemost. 1997, 78:37-41 and Cramer et al., Blood, 1997, 89:2336-46). This involves examining the differentiation of human CD34^+ stem cells into megakaryocytes which ultimately give rise to blood platelets.

in vivo = conditions: dog
Description: The potential benefit of improved water solubility on the absorption of these open-ring analogues was shown in a comparative bioavailability study in the dog. Using the unsubstituted ethyl-5,6-dichloro-3,4-dihydro-2-(1H)-iminoquinazoline-3-acetate HBr as a model compound, a comparison was made of the systemic availability of anagrelide when given as this compound or as anagrelide itself in equimolar doses (7.7 & 6.1 mg/kg respectively).
The lesser variability was consistent with more efficient absorption. This study illustrated the potential benefits of the open-ring prodrugs to improve absorption.

megakaryocytopoiesis [4] = conditions: cited from earlier work
[5] = target: human phosphodiesterase III (PDE III); conditions: cited from earlier work
[6] = human pharmacokinetics of anagrelide and its metabolite
[7] = system: human phosphodiesterase III (PDE III); assay: PDE III inhibition; type: biochemical
[8] = conversion of prodrug to anagrelide in human plasma (LC/MS-MS); type: in vitro ADME; conditions: spiked 100 ng/mL, room temperature, first point of measurement (immediately after mixing)
Description: Such prodrugs are likely to be extremely rapidly and completely cyclised in plasma to the closed ring 3-alkylanagrelide analogues. […] Human plasma was spiked with anagrelide prodrug (final concentration 100 ng/mL). Immediately after mixing, and at 15, 30, 45 and 60 minutes afterward samples were analysed for anagrelide prodrug and anagrelide.

SMILES: O=C1CN2Cc3c(ccc(Cl)c3Cl)N=C2N1 [Anagrelide, 6,7-dichloro-1,5-dihydroimidazo[2,1-b]-quinazolin-2(3H)-one]
solubility (aqueous solubility; aqueous, pH 7, aqueous buffer, read-out: aqueous solubility): < 10 µg/mL
effect on erythroid or myelomonocytic differentiation [1]: does not affect
first pass effect [2]: > 50%
typical half-life [2]: 1.5 h
IC50 (megakaryocytopoiesis [3]; Homo sapiens): 27 nM
metabolite-to-drug exposure ratio (in vivo; male): 1.5
AUC (in vivo; male, AUC for anagrelide, range): 21.6 to 188 ng·h/mL
Cmax (in vivo; male, Cmax for anagrelide, range): 9.5 to 44.3 ng/mL
IC50 (megakaryocytopoiesis [4]; estimated, background statement, read-out: IC50 inhibition of TPO-induced megakaryocytopoiesis): ~26 nM
IC50 [5]: ~29 nM

in vivo exposure relative to parent drug [6]: 2-3 fold
potency as PDE III inhibitor relative to anagrelide [7]: over 40 fold
SMILES: O=C1NC2=Nc3ccc(Cl)c(Cl)c3CN2C1O (stereo not drawn) [3-hydroxyanagrelide]
typical half-life [2]: 2.5 h
potency in inhibition of megakaryocytopoiesis relative to parent drug (megakaryocytopoiesis [4]): no more potent than the parent drug

IC50 (megakaryocytopoiesis [3]): ~160 nM
SMILES: CC1(C)C(=O)NC2=Nc3ccc(Cl)c(Cl)c3CN21 [3,3-dimethyl anagrelide]

SMILES: Br.CCOC(=O)CN1Cc2c(ccc(Cl)c2Cl)NC1=N [ethyl-5,6-dichloro-3,4-dihydro-2-(1H)-iminoquinazoline-3-acetate HBr]
solubility (aqueous solubility; distilled water): ~5500 µg/mL
prodrug remaining in human plasma [8]: no prodrug could be found
metabolite-to-drug exposure ratio (in vivo): 0.9
fold higher Cmax for anagrelide than after anagrelide itself (in vivo; 6.1 mg/kg): approximately 17 fold
mean fold higher AUC for anagrelide than after anagrelide itself (in vivo; 6.1 mg/kg): 16 fold

SMILES: Cc1[nH]c(=O)c(C#N)cc1-c1ccncc1 [milrinone]
IC50 [5]: 170 to 350 nM

From patent US20110065735A1, “SUBSTITUTED QUINAZOLINES” (Shire LLC, priority 2008, published 2011)
